Assay results taken from ChEMBL document CHEMBL1201862, “PubChem BioAssay data set” (2004).
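Test compounds were applied to cells in 96-well plates for 48 hours at 5 doses. At the GI50, growth is halved.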 The source made the active and inactive calls. No stated cut-off is given here; in the data, active = GI50 up to about 1.1 µM and inactive = higher.

What was measured:
Assay in all cases: inhibition of tumour cell growth, NCI panel, 48 h
SW-620 = system: SW-620
SF-295 = system: SF-295
CCRF-CEM = system: CCRF-CEM
RPMI-8226 = system: RPMI-8226
SNB-75 = system: SNB-75
DMS-273 = system: DMS-273
SN12C = system: SN12C
SF-539 = system: SF-539
K562 = system: K562
HOP-62 = system: HOP-62
UACC-62 = system: UACC-62
COLO 205 = system: COLO 205
A549 = system: A549
MOLT-4 = system: MOLT-4
RXF 393 = system: RXF 393
HCT-15 = system: HCT-15
U-251 = system: U-251
HOP-18 = system: HOP-18
SNB-78 = system: SNB-78
KM-20L2 = system: KM-20L2
HCC 2998 = system: HCC 2998
HL-60 = system: HL-60
Malme-3M = system: Malme-3M
SK-OV-3 = system: SK-OV-3
NCI-H460 = system: NCI-H460
LXFL 529 = system: LXFL 529
M19-MEL = system: M19-MEL
UACC-257 = system: UACC-257
IGROV-1 = system: IGROV-1
786-0 = system: 786-0
OVCAR-4 = system: OVCAR-4
DLD-1 = system: DLD-1
HT-29 = system: HT-29
HOP-92 = system: HOP-92
ACHN = system: ACHN
OVCAR-3 = system: OVCAR-3
A498 = system: A498
KM12 = system: KM12
M14 = system: M14
XF498 = system: XF498
SF-268 = system: SF-268
SK-MEL-5 = system: SK-MEL-5
UO-31 = system: UO-31
SK-MEL-2 = system: SK-MEL-2
NCI-H23 = system: NCI-H23
NCI-H226 = system: NCI-H226
LOX IMVI = system: LOX IMVI
RXF 631 = system: RXF 631
SK-MEL-28 = system: SK-MEL-28
CAKI-1 = system: CAKI-1
OVCAR-5 = system: OVCAR-5
DMS-114 = system: DMS-114
TK-10 = system: TK-10
OVCAR-8 = system: OVCAR-8
SNB-19 = system: SNB-19
NCI-H522 = system: NCI-H522
EKVX = system: EKVX
HCT-116 = system: HCT-116

Measured: GI50

CC(C)(C)OC(=O)N1N=NC2C1C1CC(OCc3ccccc3)(OCc3ccccc3)C2O1 (stereo unspecified)
31.3 µM: HCT-15
inactive: SW-620 14.7 µM | SF-295 40 µM | CCRF-CEM 11.2 µM | RPMI-8226 14.1 µM | SNB-75 28.1 µM | DMS-273 52.2 µM | SN12C 49.4 µM | SF-539 > 10 µM | K562 20.2 µM | HOP-62 > 100 µM | UACC-62 71.4 µM | COLO 205 > 100 µM | A549 84.5 µM | MOLT-4 7.82 µM | RXF 393 27.9 µM | U-251 55.1 µM | HOP-18 35.9 µM | SNB-78 43.7 µM | KM-20L2 > 100 µM | HCC 2998 > 100 µM | HL-60 8.02 µM | Malme-3M 65.8 µM | SK-OV-3 > 100 µM | NCI-H460 > 100 µM | LXFL 529 16.4 µM | M19-MEL 37.5 µM | UACC-257 23.6 µM | IGROV-1 > 100 µM | 786-0 40.8 µM | OVCAR-4 32.5 µM | DLD-1 26.1 µM | HT-29 > 100 µM | HOP-92 33.5 µM | ACHN > 100 µM | OVCAR-3 30.3 µM | A498 > 100 µM | KM12 81.8 µM | M14 44.1 µM | XF498 15.9 µM | SF-268 35.1 µM | SK-MEL-5 16.8 µM | UO-31 29.9 µM | SK-MEL-2 49.2 µM | NCI-H23 21.1 µM | NCI-H226 21.4 µM | LOX IMVI 18.1 µM | RXF 631 > 100 µM | SK-MEL-28 29 µM | CAKI-1 > 100 µM | OVCAR-5 > 100 µM | DMS-114 17.7 µM

CCCCCCCCCCCCCCC(O)C1CCC(C(O)CCC(O)CCCCCC(O)CC2=CC(C)OC2=O)O1 (stereo unspecified)
1.29 µM: HCT-15
inactive: SW-620 2.52 µM | SF-295 1.26 µM | CCRF-CEM 1.29 µM | SNB-75 2.22 µM | TK-10 4.27 µM | DMS-273 1.4 µM | SN12C 1.24 µM | SF-539 1.3 µM | HOP-62 1.55 µM | UACC-62 2.33 µM | COLO 205 2.43 µM | A549 2.2 µM | OVCAR-8 2.07 µM | U-251 2.74 µM | SNB-78 1.49 µM | KM-20L2 3.4 µM | HCC 2998 2.51 µM | Malme-3M 1.58 µM | SK-OV-3 4.73 µM | NCI-H460 1.79 µM | LXFL 529 2.11 µM | M19-MEL 2 µM | IGROV-1 1.44 µM | 786-0 2.43 µM | DLD-1 2.31 µM | HT-29 1.82 µM | HOP-92 2.06 µM | OVCAR-3 1.13 µM | A498 4.45 µM | SNB-19 1.81 µM | M14 6.3 µM | NCI-H522 1.14 µM | EKVX 1.93 µM | SK-MEL-2 2.54 µM | HCT-116 1.36 µM | LOX IMVI 1.18 µM | RXF 631 2.94 µM | SK-MEL-28 1.93 µM | CAKI-1 8.13 µM | OVCAR-5 4.4 µM
active: RPMI-8226 0.187 µM | K562 0.0123 µM | MOLT-4 0.64 µM | HL-60 0.0117 µM | UACC-257 0.18 µM | OVCAR-4 0.013 µM | XF498 1.12 µM | SF-268 0.832 µM | SK-MEL-5 0.0131 µM | UO-31 0.0604 µM | NCI-H23 < 0.01 µM | NCI-H226 1.09 µM | DMS-114 < 0.01 µM
